Tested on: 379773-124-R-J2-PDC complex spheroids, viability % test/control
Assay: Anticancer human tumor 379773-124-R-J2-PDC patient-derived endometrial carcinoma cell line growth inhibition [CLK]
Conditions: for viability, T/C: stronger effect = lower value
Description: A high-throughput screen of multi-cell type tumor spheroids was designed to identify active combinations of […] and targeted small molecules. Complex spheroids include a stromal component modeled by human endothelial cells (HUVEC) and fibroblasts modeled by human mesenchymal stem cells (MSCs). The concentration ranges selected for each drug and investigational agent were based upon clinically achievable concentrations if the clinical Cmax of the agent was known.
Compounds. The drugs and investigational agents: cirtuvivint (SM08502; NSC835563), CC-671 (NSC850746), vemurafenib (NSC761431), tapotoclax (NSC804041), sotorasib (NSC818433), adagrasib (NSC831453), MRTX-1133 (NSC836407), BAY2416964 (NSC825713), copanlisib (NSC816437), inavolisib (NSC800729), abemaciclib (NSC768073), osimertinib (NSC779217), entinostat (NSC756642), eltanexor (KPT-8602, NSC794443), venetoclax (NSC766270), ceralasertib (NSC777638), bortezomib (NSC756655), olaparib (NSC753686), talazoparib (NSC767125), alisertib (NSC759677), peposertib (NSC802822), gemcitabine (NSC613327), 5-fluorouracil (NSC19893), SN-38 (NSC673596), oxaliplatin (NSC266046), paclitaxel (NSC125973), and doxorubicin (NSC123127), were obtained from the National Cancer Institute (NCI) Developmental Therapeutics Program Chemical Repository. The FDA-approved anticancer drug set is available from the Developmental Therapeutics Program at https://dtp.cancer.gov/organization/dscb/obtaining/available plates.htm. […] The stock solutions were prepared in dimethyl sulfoxide (DMSO, Sigma-Aldrich, St. Louis, MO, cat. D2650), except for the platinum complexes which were prepared in saline (Quality Biological, Gaithersburg, MD, cat. 114-055-101), at 800-fold the tested concentration and stored at -70 degrees C prior to their use. All drugs and investigational agents were tested over a range starting from a high concentration at or near the clinical Cmax and decreasing in half-log increments. If the clinical Cmax for an agent had not been determined, the highest concentration tested was 10 microM.
Cell Culture. All cells were maintained in an incubator at 37 degrees C and 5% CO2 with 95% humidity. The PDC lines were cultured according to standard operating procedures established by the NCI PDMR. Briefly, all PDCs were thawed and cultured in Matrigel-coated flasks prepared with a working solution of 1X Ham's F-12 nutrient mix, without supplementation (Invitrogen, Waltham, MA, cat. 11765054), 100 U/mL penicillin-streptomycin (Invitrogen, cat. 15140122), and 2.5% Matrigel (Corning Inc., Corning, NY, cat. 354248) for the first three passages. The 947758-054-R-J2-PDC line was cultured in 6B/Colon 1A media, which includes advanced DMEM/F-12 (Thermo Fisher Scientific, cat. 12634028), 10 mM HEPES (Thermo Fisher Scientific, cat. 15630080), 1X GlutaMAX supplement (Thermo Fisher Scientific, cat. 35050061), 0.1 mg/mL primocin (InvivoGen, cat. ant-pm-2), 10% defined fetal bovine serum, heat inactivated (HyClone Laboratories Inc., cat. SH30070.03HI), 1.25 mM N-Acetyl-L-cysteine (Sigma-Aldrich, cat. A9165), 10 mM nicotinamide (Sigma-Aldrich, cat. N0636), 1X B-27 supplement (Thermo Fisher Scientific, cat. 17504044), 1X N-2 supplement (Thermo Fisher Scientific, cat. 17502048), and 10 microM Y-27632 dihydrochloride (Tocris Bioscience, cat. 1254). The 876862-298-R-J1-PDC was cultured in 6E media, which includes all 6B/Colon 1A media components plus 50% L-WRN conditioned media (ATCC, cat. CRL-3276), 50 ng/mL recombinant human EGF recombinant protein (hEGF; Thermo Fisher Scientific, cat. PHG0311), 10 ng/mL recombinant human fibroblast growth factor 10 (hGFG-10; PeproTech, cat. 100-26), 1 ng/mL recombinant human fibroblast growth factor 2 (hFGF-2; PeproTech, cat. 100-18B), and 1 µM prostaglandin E2 (PGE2; Tocris, cat. 2296). The 227483-062-R1-J1-PDC line was cultured in Panc media, containing all 6E components except hFGF-2, with the addition of 500 nM SB-431542 (Selleckchem, cat. S1067) and 10 nM gastrin (Tocris, cat. 3006). […]

[1] = curve of first compound, second compound 0.0316 µM
[2] = curve of first compound, second compound 0.1 µM
[3] = curve of first compound, second compound 0.316 µM
[4] = curve of first compound, second compound 1 µM
[5] = curve of first compound, second compound 3.16 µM
[6] = curve of first compound, second compound 10 µM
[7] = second compound 0.0316 µM, first compound 0.0316 µM
[8] = second compound 0.0316 µM, first compound 0.1 µM
[9] = second compound 0.0316 µM, first compound 0.316 µM
[10] = second compound 0.0316 µM, first compound 1 µM
[11] = second compound 0.0316 µM, first compound 3.16 µM
[12] = second compound 0.0316 µM, first compound 10 µM
[13] = second compound 0.1 µM, first compound 0.0316 µM
[14] = second compound 0.1 µM, first compound 0.1 µM
[15] = second compound 0.1 µM, first compound 0.316 µM
[16] = second compound 0.1 µM, first compound 1 µM
[17] = second compound 0.1 µM, first compound 3.16 µM
[18] = second compound 0.1 µM, first compound 10 µM
[19] = second compound 0.316 µM, first compound 0.0316 µM
[20] = second compound 0.316 µM, first compound 0.1 µM
[21] = second compound 0.316 µM, first compound 0.316 µM
[22] = second compound 0.316 µM, first compound 1 µM
[23] = second compound 0.316 µM, first compound 3.16 µM
[24] = second compound 0.316 µM, first compound 10 µM
[25] = second compound 1 µM, first compound 0.0316 µM
[26] = second compound 1 µM, first compound 0.1 µM
[27] = second compound 1 µM, first compound 0.316 µM
[28] = second compound 1 µM, first compound 1 µM
[29] = second compound 1 µM, first compound 3.16 µM
[30] = second compound 1 µM, first compound 10 µM
[31] = second compound 3.16 µM, first compound 0.0316 µM
[32] = second compound 3.16 µM, first compound 0.1 µM
[33] = second compound 3.16 µM, first compound 0.316 µM
[34] = second compound 3.16 µM, first compound 1 µM
[35] = second compound 3.16 µM, first compound 3.16 µM
[36] = second compound 3.16 µM, first compound 10 µM
[37] = second compound 10 µM, first compound 0.0316 µM
[38] = second compound 10 µM, first compound 0.1 µM
[39] = second compound 10 µM, first compound 0.316 µM
[40] = second compound 10 µM, first compound 1 µM
[41] = second compound 10 µM, first compound 3.16 µM
[42] = second compound 10 µM, first compound 10 µM
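Further: compound exposure lasted seven days before the viability readout.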
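Wherever viability, T/C is given: 100% = DMSO vehicle control wells.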

Compound `CC1COCCN1c1cc(C2(S(C)(=N)=O)CC2)nc(-c2ccnc3[nH]ccc23)n1` (stereo not drawn) + CN1CCN(c2cc(C(=O)Nc3cc4cc(-c5cnn(C)c5)ccc4cn3)ccn2)CC1 has an IC50 [1] of 2.5 µM, an IC50 [2] of 2.82 µM and an IC50 [3] of less than 0.0316 µM. The IC50 [4] was less than 0.0316 µM, the IC50 [5] was less than 0.0316 µM and the IC50 [6] was less than 0.0316 µM. The viability, T/C [7] was 98.2%, the viability, T/C [8] was 95.1% and the viability, T/C [9] was 80.2%. The viability, T/C [10] was 74%, the viability, T/C [11] was 42.8% and the viability, T/C [12] was 17.2%. For the same compound, the viability, T/C [13] was 84.2%, the viability, T/C [14] was 75.7% and the viability, T/C [15] was 77.5%. For the same compound, the viability, T/C [16] was 64.9%, the viability, T/C [17] was 49.3% and the viability, T/C [18] was 12.5%. It also gave a viability, T/C [19] of 21.9%, a viability, T/C [20] of 26.2% and a viability, T/C [21] of 20.1%. For the same compound, the viability, T/C [22] was 15.6%, the viability, T/C [23] was 10.6% and the viability, T/C [24] was 3.29%. For the same compound, the viability, T/C [25] was 0.11%, the viability, T/C [26] was 0.2% and the viability, T/C [27] was 0.96%. For the same compound, the viability, T/C [28] was 2.48%, the viability, T/C [29] was 0.1% and the viability, T/C [30] was 0.06%. It also gave a viability, T/C [31] of 1.57%, a viability, T/C [32] of 1.16% and a viability, T/C [33] of 0.14%. For the same compound, the viability, T/C [34] was 0.1%, the viability, T/C [35] was 0.12% and the viability, T/C [36] was 0.1%. The viability, T/C [37] was 0.14%, the viability, T/C [38] was 0.36% and the viability, T/C [39] was 1.74%. It also gave a viability, T/C [40] of 0.18%, a viability, T/C [41] of 3% and a viability, T/C [42] of 0.19%.
Work on `C=C(F)C(=O)N1CCN(c2nc(OCC3CCCN3C)nc3c2CCN(c2cccc4cccc(Cl)c24)C3)CC1CC#N` (stereo not drawn) + CN1CCN(c2cc(C(=O)Nc3cc4cc(-c5cnn(C)c5)ccc4cn3)ccn2)CC1 yielded an IC50 [1] of 4.62 µM, an IC50 [2] of 2.7 µM and an IC50 [3] of less than 0.0316 µM. The IC50 [4] was less than 0.0316 µM, the IC50 [5] was less than 0.0316 µM and the IC50 [6] was less than 0.0316 µM. The viability, T/C [7] was 87.9%, the viability, T/C [8] was 86% and the viability, T/C [9] was 86%. For the same compound, the viability, T/C [10] was 88.7%, the viability, T/C [11] was 73.9% and the viability, T/C [12] was 1.28%. The viability, T/C [13] was 85.8%, the viability, T/C [14] was 72.8% and the viability, T/C [15] was 90.9%. The viability, T/C [16] was 79.5%, the viability, T/C [17] was 45.3% and the viability, T/C [18] was 1%. It also gave a viability, T/C [19] of 28.3%, a viability, T/C [20] of 36.7% and a viability, T/C [21] of 31.8%. For the same compound, the viability, T/C [22] was 37.5%, the viability, T/C [23] was 13.6% and the viability, T/C [24] was 0.93%. The viability, T/C [25] was 0.49%, the viability, T/C [26] was 0.17% and the viability, T/C [27] was 0.3%. It also gave a viability, T/C [28] of 1.49%, a viability, T/C [29] of 0.88% and a viability, T/C [30] of 0.75%. The viability, T/C [31] was 1.35%, the viability, T/C [32] was 0.14% and the viability, T/C [33] was 2.05%. The viability, T/C [34] was 0.84%, the viability, T/C [35] was 1.24% and the viability, T/C [36] was 0.11%. For the same compound, the viability, T/C [37] was 0.66%, the viability, T/C [38] was 1.65% and the viability, T/C [39] was 0.21%. For the same compound, the viability, T/C [40] was 0.22%, the viability, T/C [41] was 0.2% and the viability, T/C [42] was 0.65%.
For `Nc1ccn(C2OC(CO)C(O)C2(F)F)c(=O)n1` (stereo not drawn) + CNC(=O)c1ccc(Nc2nc(OC3CCCC3)c3c(-c4ccc5nc(C)oc5c4)c[nH]c3n2)c(OC)c1, the IC50 [1] was less than 0.0316 µM, the IC50 [2] was less than 0.0316 µM and the IC50 [3] was less than 0.0316 µM. The IC50 [4] was less than 0.0316 µM, the IC50 [5] was less than 0.0316 µM and the IC50 [6] was less than 0.0316 µM. It also gave a viability, T/C [7] of 6.55%, a viability, T/C [8] of 3.76% and a viability, T/C [9] of 4.74%. It also gave a viability, T/C [10] of 5.45%, a viability, T/C [11] of 5.63% and a viability, T/C [12] of 3.43%. The viability, T/C [13] was 7.18%, the viability, T/C [14] was 4.04% and the viability, T/C [15] was 4.89%. For the same compound, the viability, T/C [16] was 3%, the viability, T/C [17] was 4.22% and the viability, T/C [18] was 2.03%. For the same compound, the viability, T/C [19] was 6.96%, the viability, T/C [20] was 5.27% and the viability, T/C [21] was 3.29%. For the same compound, the viability, T/C [22] was 3.59%, the viability, T/C [23] was 3.28% and the viability, T/C [24] was 2.14%. The viability, T/C [25] was 12.8%, the viability, T/C [26] was 6.01% and the viability, T/C [27] was 3.29%. For the same compound, the viability, T/C [28] was 2.77%, the viability, T/C [29] was 3.38% and the viability, T/C [30] was 1.2%. For the same compound, the viability, T/C [31] was 13.6%, the viability, T/C [32] was 6.51% and the viability, T/C [33] was 2.77%. The viability, T/C [34] was 2.75%, the viability, T/C [35] was 2.62% and the viability, T/C [36] was 0.99%. The viability, T/C [37] was 13.8%, the viability, T/C [38] was 8.14% and the viability, T/C [39] was 4.09%. For the same compound, the viability, T/C [40] was 2.72%, the viability, T/C [41] was 3.57% and the viability, T/C [42] was 1.76%.
With `CNC(=O)c1ccc(Nc2nc(OC3CCCC3)c3c(-c4ccc5nc(C)oc5c4)c[nH]c3n2)c(OC)c1` the viability, T/C (compound 0.0316 µM) was 82.9% [middle of 12 runs], the viability, T/C (compound 0.1 µM) was 39.7% [middle of 12 runs] and the viability, T/C (compound 0.316 µM) was 39% [middle of 12 runs]. For the same compound, the viability, T/C (compound 1 µM) was 32.1% [middle of 12 runs], the viability, T/C (compound 3.16 µM) was 35.5% [middle of 12 runs] and the viability, T/C (compound 10 µM) was 33.9% [middle of 12 runs]. The IC50 (compound alone, run of 09/19/2023) was 75.8 nM [middle of 12 runs].
